Tests used:
[1] = excess molar enthalpy (molar enthalpy of mixing); xn = mol fraction of the nth substance listed; conditions: 298.15 K, 101.33 kPa, Liquid, Flow calorimetry
[2] = xn = mol fraction of the nth substance listed; conditions: 101.33 kPa, Liquid; for viscosity: Capillary tube (Ostwald / Ubbelohde) method
[3] = molar heat capacity at constant pressure; xn = mol fraction of the nth substance listed; conditions: 101.33 kPa, Liquid, Vacuum adiabatic calorimetry

COP(=O)([O-])OC.Cn1cc[n+](C)c1 [1,3-dimethylimidazolium dimethylphosphate] + CCO
[1]
Conditions	excess molar enthalpy [kcal/mol]
x1 = 0.177	-0.329
x1 = 0.307	-0.481
x1 = 0.524	-0.485
x1 = 0.665	-0.377
x1 = 0.8	-0.241
x1 = 1	0

Conditions	molar heat capacity at constant pressure, 298.15 K [J/K/mol]	molar heat capacity at constant pressure, 303.15 K [J/K/mol]	molar heat capacity at constant pressure, 313.15 K [J/K/mol]	molar heat capacity at constant pressure, 323.15 K [J/K/mol]	viscosity, 298.15 K [mPa·s]	viscosity, 303.15 K [mPa·s]	viscosity, 308.15 K [mPa·s]	viscosity, 313.15 K [mPa·s]	viscosity, 318.15 K [mPa·s]	viscosity, 323.15 K [mPa·s]
[2], x1 = 0.202	–	–	–	–	6.83	5.98	5.3	4.83	4.32	3.94
[2], x1 = 0.414	–	–	–	–	22.99	19	16.21	14.15	12.35	11.03
[2], x1 = 0.562	–	–	–	–	48.76	38.45	30.8	26.47	22.23	19.27
[2], x1 = 0.807	–	–	–	–	137.88	105.91	80.22	63.76	50.57	42.11
[2], x1 = 1	–	–	–	–	271.86	188.3	139.49	110.25	84.44	69.99
[3], x1 = 0.224	145.29	153.59	172.15	190.19	–	–	–	–	–	–
[3], x1 = 0.408	193.74	205.3	227.82	247.28	–	–	–	–	–	–
[3], x1 = 0.596	235.91	247.99	280.92	299.34	–	–	–	–	–	–
[3], x1 = 0.803	258.54	267.73	289.85	304.85	–	–	–	–	–	–
[3], x1 = 1	282.83	296.61	310.83	321.05	–	–	–	–	–	–

mass density [kg/m3], [2], Specific gravity balance
Conditions	298.15 K	303.15 K	308.15 K	313.15 K	318.15 K	323.15 K
x1 = 0.202	1000.6	996.6	992.7	989.7	986.9	983.2
x1 = 0.414	1116.5	1113.4	1109.8	1106.6	1103.5	1098.4
x1 = 0.562	1166.7	1163.4	1159.7	1156.2	1152.4	1148.5
x1 = 0.807	1223.2	1219.5	1216.8	1213.8	1211.4	1207.5
x1 = 1	1258.7	1255.9	1253	1249.1	1245.2	1241.5

COP(=O)([O-])OC.Cn1cc[n+](C)c1 [1,3-dimethylimidazolium dimethylphosphate] + CO
[1]
Conditions	excess molar enthalpy [kcal/mol]
x1 = 0.165	-0.539
x1 = 0.28	-0.779
x1 = 0.466	-0.783
x1 = 0.593	-0.687
x1 = 0.744	-0.475
x1 = 1	0

Conditions	molar heat capacity at constant pressure, 298.15 K [J/K/mol]	molar heat capacity at constant pressure, 303.15 K [J/K/mol]	molar heat capacity at constant pressure, 313.15 K [J/K/mol]	molar heat capacity at constant pressure, 323.15 K [J/K/mol]	viscosity, 298.15 K [mPa·s]	viscosity, 303.15 K [mPa·s]	viscosity, 308.15 K [mPa·s]	viscosity, 313.15 K [mPa·s]	viscosity, 318.15 K [mPa·s]	viscosity, 323.15 K [mPa·s]
[2], x1 = 0.203	–	–	–	–	3.8	3.32	3.06	2.84	2.6	2.4
[2], x1 = 0.399	–	–	–	–	18.33	16.56	12.43	11.08	9.76	8.79
[2], x1 = 0.603	–	–	–	–	53.9	38.18	31.37	25.8	22.86	18.45
[2], x1 = 0.805	–	–	–	–	145.63	98.68	75.4	61.57	49.9	40.2
[2], x1 = 1	–	–	–	–	271.86	188.3	139.49	110.25	84.44	69.99
[3], x1 = 0.202	130.82	144.77	169.01	190.07	–	–	–	–	–	–
[3], x1 = 0.399	177.61	191.43	214.09	233.4	–	–	–	–	–	–
[3], x1 = 0.591	215.46	225.28	246.8	262.54	–	–	–	–	–	–
[3], x1 = 0.81	256.75	261.78	274.8	290.24	–	–	–	–	–	–
[3], x1 = 1	282.83	296.61	310.83	321.05	–	–	–	–	–	–

mass density [kg/m3], [2], Specific gravity balance
Conditions	298.15 K	303.15 K	308.15 K	313.15 K	318.15 K	323.15 K
x1 = 0.203	1040.2	1037.1	1033.2	1030.2	1027.6	1025.1
x1 = 0.399	1158.3	1155.2	1151.2	1148.1	1147	1140.1
x1 = 0.603	1205.5	1201.4	1197.8	1194.1	1190.8	1188
x1 = 0.805	1236.4	1233	1229.7	1226.4	1223.1	1219.8
x1 = 1	1258.7	1255.9	1253	1249.1	1245.2	1241.5

COP(=O)([O-])OC.Cn1cc[n+](C)c1 [1,3-dimethylimidazolium dimethylphosphate] + O
[1]
Conditions	excess molar enthalpy [kcal/mol]
x1 = 0.104	-1.12
x1 = 0.209	-1.42
x1 = 0.369	-1.54
x1 = 0.498	-1.45
x1 = 0.604	-1.28
x1 = 1	0

Conditions	molar heat capacity at constant pressure, 298.15 K [J/K/mol]	molar heat capacity at constant pressure, 303.15 K [J/K/mol]	molar heat capacity at constant pressure, 313.15 K [J/K/mol]	molar heat capacity at constant pressure, 323.15 K [J/K/mol]	viscosity, 298.15 K [mPa·s]	viscosity, 303.15 K [mPa·s]	viscosity, 308.15 K [mPa·s]	viscosity, 313.15 K [mPa·s]	viscosity, 318.15 K [mPa·s]	viscosity, 323.15 K [mPa·s]
[2], x1 = 0.252	–	–	–	–	40.02	32.61	24.46	20.28	16.97	14.5
[2], x1 = 0.428	–	–	–	–	74.43	55.22	43.51	35.23	27.92	23.63
[2], x1 = 0.617	–	–	–	–	145.21	110.23	82.04	66.13	51.66	41.92
[2], x1 = 0.795	–	–	–	–	197.92	138.81	104.59	80.27	63.01	50.35
[2], x1 = 1	–	–	–	–	271.86	188.3	139.49	110.25	84.44	69.99
[3], x1 = 0.21	116.48	124.21	147.96	171.34	–	–	–	–	–	–
[3], x1 = 0.375	143.19	151.23	167.21	182.63	–	–	–	–	–	–
[3], x1 = 0.57	197.42	205.75	220.8	232.9	–	–	–	–	–	–
[3], x1 = 0.821	255.8	267.68	284.76	298.31	–	–	–	–	–	–
[3], x1 = 1	282.83	296.61	310.83	321.05	–	–	–	–	–	–

mass density [kg/m3], [2], Speicific gravity balance
Conditions	298.15 K	303.15 K	308.15 K	313.15 K	318.15 K	323.15 K
x1 = 0.252	1233.4	1231	1227.9	1224	1220.8	1216.8
x1 = 0.428	1241.5	1239.4	1236.2	1233.6	1230.5	1226.2
x1 = 0.617	1248.5	1245.8	1241.8	1239.3	1236.1	1232.9
x1 = 0.795	1253.6	1250.5	1247.2	1243.9	1241.1	1236.8
x1 = 1	1258.7	1255.9	1253	1249.1	1245.2	1241.5

Reference: the NIST ThermoML archive (doi:10.1016/j.fluid.2010.07.005)
